# Data from patent US4684664A, “Derivatives of β-(4-isocyano-1,2,3,4-diepoxycyclopentyl) acrylic acid” (Kureha Kagaku Kogyo Kabushiki Kaisha, priority 1984, dated 1987).
# Tests used:
# Format in all cases: cell-based
# [1] = tested on: Streptococcus pyogenes IFO 3340; experiment: Antibacterial activity, agar-dilution MIC, organism No. 26; conditions: Streptococcus pyogenes, IFO3340; Organism No. 26, bouillon-agar; read-out: Minimum Inhibitory Concentration
# Procedure, shortened: (§1)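 Dilution in agar (bouillon-agar base) is the format; activity is expressed as MIC, μg per ml medium.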
# [2] = tested on: Bacillus subtilis ATCC 6633; experiment: Antibacterial activity, agar-dilution MIC, organism No. 14; conditions: Bacillus subtilis, ATCC6633; Organism No. 14, bouillon-agar; read-out: Minimum Inhibitory Concentration
# Procedure, shortened: as §1
# [3] = tested on: Streptococcus pyogenes Cook; experiment: Antibacterial activity, agar-dilution MIC, organism No. 4; conditions: Streptococcus pyogenes; Organism No. 4, bouillon-agar; read-out: Minimum Inhibitory Concentration
# Procedure, shortened: as §1
# [4] = tested on: Micrococcus luteus ATCC 9341; experiment: Antibacterial activity, agar-dilution MIC, organism No. 25; conditions: Micrococcus luteus, ATCC9341; Organism No. 25, bouillon-agar; read-out: Minimum Inhibitory Concentration
# Procedure, shortened: as §1
# [5] = tested on: Salmonella typhimurium IID 971; experiment: Antibacterial activity, agar-dilution MIC, organism No. 8; conditions: Salmonella enterica; Organism No. 8, bouillon-agar; read-out: Minimum Inhibitory Concentration
# Procedure, shortened: as §1
# [6] = tested on: Pseudomonas aeruginosa IFO 3445; experiment: Antibacterial activity, agar-dilution MIC, organism No. 15; conditions: Pseudomonas aeruginosa, IFO3445; Organism No. 15, bouillon-agar; read-out: Minimum Inhibitory Concentration
# Procedure, shortened: as §1
# [7] = tested on: Serratia marcescens IAM 1184; experiment: Antibacterial activity, agar-dilution MIC, organism No. 13; conditions: Serratia marcescens, IAM1184; Organism No. 13, bouillon-agar; read-out: Minimum Inhibitory Concentration
# Procedure, shortened: as §1
# [8] = tested on: Enterobacter aerogenes ATCC 13048; experiment: Antibacterial activity, agar-dilution MIC, organism No. 23; conditions: Klebsiella aerogenes, ATCC13048; Organism No. 23, bouillon-agar; read-out: Minimum Inhibitory Concentration
# Procedure, shortened: as §1
# [9] = tested on: Candida albicans IAM 4905; experiment: Antifungal activity, agar-dilution MIC, organism No. 29; conditions: Candida albicans, IAM4905; Organism No. 29, bouillon-agar; read-out: Minimum Inhibitory Concentration
# Procedure, shortened: as §1
# Salmonella typhi 901 = experiment: Antibacterial activity, agar-dilution MIC, organism No. 9; conditions: Salmonella enterica, TYPHI, read-out: Minimum Inhibitory Concentration
# Procedure, shortened: as §1
# [10] = tested on: Escherichia coli K12 C600 IAM 1264; experiment: Antibacterial activity, agar-dilution MIC, organism No. 6; conditions: Escherichia coli, IAM1264; Organism No. 6, bouillon-agar; read-out: Minimum Inhibitory Concentration
# Procedure, shortened: as §1
# [11] = tested on: Proteus mirabilis IFO 3849; experiment: Antibacterial activity, agar-dilution MIC, organism No. 19; conditions: Proteus mirabilis, IFO3849; Organism No. 19, bouillon-agar; read-out: Minimum Inhibitory Concentration
# Procedure, shortened: as §1
# [12] = tested on: Proteus rettgeri IFO 3850; experiment: Antibacterial activity, agar-dilution MIC, organism No. 22; conditions: Providencia rettgeri, IFO3850; Organism No. 22, bouillon-agar; read-out: Minimum Inhibitory Concentration
# Procedure, shortened: as §1
# Enterobacter cloacae 963 = experiment: Antibacterial activity, agar-dilution MIC, organism No. 24; conditions: Enterobacter cloacae, 963; Organism No. 24, bouillon-agar; read-out: Minimum Inhibitory Concentration
# Procedure, shortened: as §1
# [13] = tested on: Salmonella enteritidis G 14; experiment: Antibacterial activity, agar-dilution MIC, organism No. 12; conditions: Salmonella enterica, ENTERITIDIS; Organism No. 12, bouillon-agar; read-out: Minimum Inhibitory Concentration
# Procedure, shortened: as §1
# Proteus vulgaris OX-19 = experiment: Antibacterial activity, agar-dilution MIC, organism No. 20; conditions: Proteus vulgaris, OX19; Organism No. 20, bouillon-agar; read-out: Minimum Inhibitory Concentration
# Procedure, shortened: as §1
# [14] = tested on: Proteus morganii IFO 3848; experiment: Antibacterial activity, agar-dilution MIC, organism No. 18; conditions: Morganella morganii, IFO3848; Organism No. 18, bouillon-agar; read-out: Minimum Inhibitory Concentration
# Procedure, shortened: as §1
# Proteus vulgaris HX-19 = experiment: Antibacterial activity, agar-dilution MIC, organism No. 21; conditions: Proteus vulgaris, HX19; Organism No. 21, bouillon-agar; read-out: Minimum Inhibitory Concentration
# Procedure, shortened: as §1
# [15] = tested on: Pseudomonas aeruginosa PAO 1; experiment: Antibacterial activity, agar-dilution MIC, organism No. 17; conditions: Pseudomonas aeruginosa, PAO1; Organism No. 17, bouillon-agar; read-out: Minimum Inhibitory Concentration
# Procedure, shortened: as §1
# [16] = tested on: Salmonella paratyphi-A 1015; experiment: Antibacterial activity, agar-dilution MIC, organism No. 10; conditions: Salmonella enterica, PARATYPHI, read-out: Minimum Inhibitory Concentration
# Procedure, shortened: as §1
# [17] = tested on: Staphylococcus aureus FDA 209PJc-1; experiment: Antibacterial activity, agar-dilution MIC, organism No. 1; conditions: Staphylococcus aureus, FDA209PJC1; Organism No. 1, bouillon-agar; read-out: Minimum Inhibitory Concentration
# Procedure, shortened: as §1
# [18] = tested on: Aspergillus niger IFO 6342; experiment: Antifungal activity, agar-dilution MIC, organism No. 30; conditions: Aspergillus niger, IFO6342; Organism No. 30, bouillon-agar; read-out: Minimum Inhibitory Concentration
# Procedure, shortened: as §1
# [19] = tested on: Escherichia coli NIHJ-JC-2; experiment: Antibacterial activity, agar-dilution MIC, organism No. 5; conditions: Escherichia coli, NIHJJC2; Organism No. 5, bouillon-agar; read-out: Minimum Inhibitory Concentration
# Procedure, shortened: as §1
# [20] = tested on: Pseudomonas aeruginosa NCTC 10490; experiment: Antibacterial activity, agar-dilution MIC, organism No. 16; conditions: Pseudomonas aeruginosa, NCTC10490; Organism No. 16, bouillon-agar; read-out: Minimum Inhibitory Concentration
# Procedure, shortened: as §1
# [21] = tested on: Streptococcus faecium IFO 3826; experiment: Antibacterial activity, agar-dilution MIC, organism No. 27; conditions: Enterococcus faecium, IFO3826; Organism No. 27, bouillon-agar; read-out: Minimum Inhibitory Concentration
# Procedure, shortened: as §1
# [22] = tested on: Mycoplasma pneumoniae IID817; experiment: Antimycoplasmal activity, MIC by phenol red colour change, organism No. 28; conditions: Mycoplasma, IID817; Organism No. 28, PPLO broth + 1% glucose, 37° C.; read-out: Minimum Inhibitory Concentration (MIC)
# Procedure: Mycoplasma pneumoniae IID817 was used as the test microorganism in a culture medium prepared by adding 1% of glucose to "PPLO broth (manufactured by Difco Co.) liquid culture medium" at 37° C. with phenol red as an indicator, thereby culturing the test microorganism.
# [23] = tested on: Staphylococcus aureus Terajima; experiment: Antibacterial activity, agar-dilution MIC, organism No. 2; conditions: Staphylococcus aureus; Organism No. 2, bouillon-agar; read-out: Minimum Inhibitory Concentration
# Procedure, shortened: as §1
# [24] = tested on: Salmonella shottmuelleri 8006; experiment: Antibacterial activity, agar-dilution MIC, organism No. 11; conditions: Salmonella, 8006; Organism No. 11, bouillon-agar; read-out: Minimum Inhibitory Concentration
# Procedure, shortened: as §1
# [25] = tested on: Klebsiella pneumoniae PCI-602; experiment: Antibacterial activity, agar-dilution MIC, organism No. 7; conditions: Klebsiella pneumoniae, PCI602; Organism No. 7, bouillon-agar; read-out: Minimum Inhibitory Concentration
# Procedure, shortened: as §1
# [26] = tested on: Staphylococcus aureus MS 353; experiment: Antibacterial activity, agar-dilution MIC, organism No. 3; conditions: Staphylococcus aureus, MS353; Organism No. 3, bouillon-agar; read-out: Minimum Inhibitory Concentration
# Procedure, shortened: as §1
Structure (SMILES),MIC [1] [µg/mL],MIC [2] [µg/mL],MIC [3] [µg/mL],MIC [4] [µg/mL],MIC [5] [µg/mL],MIC [6] [µg/mL],MIC [7] [µg/mL],MIC [8] [µg/mL],MIC [9] [µg/mL],MIC (Salmonella typhi 901) [µg/mL],MIC [10] [µg/mL],MIC [11] [µg/mL],MIC [12] [µg/mL],MIC (Enterobacter cloacae 963) [µg/mL],MIC [13] [µg/mL],MIC (Proteus vulgaris OX-19) [µg/mL],MIC [14] [µg/mL],MIC (Proteus vulgaris HX-19) [µg/mL],MIC [15] [µg/mL],MIC [16] [µg/mL],further results
[C-]#[N+]C12CC3(/C=C/C(=O)Nc4ccccc4C(N)=O)OC3C1O2 (stereo not drawn) [compound 62],6.25,25,> 200,25,50,> 200,> 200,> 200,100,25,> 200,> 200,> 200,> 200,50,3.13,12.5,3.13,> 200,25,MIC [17]: 12.5 µg/mL; MIC [18]: 100 µg/mL; MIC [19]: > 200 µg/mL; MIC [20]: > 200 µg/mL; MIC [21]: > 200 µg/mL; MIC [22]: < 0.2 µg/mL; MIC [23]: 50 µg/mL; MIC [24]: 25 µg/mL; MIC [25]: 3.13 µg/mL; MIC [26]: 12.5 µg/mL
[C-]#[N+]C12CC3(/C=C/C(=O)Nc4ccc(S(N)(=O)=O)cc4)OC3C1O2 (stereo not drawn) [compound 63],6.25,50,> 200,25,100,> 200,> 200,> 200,100,50,> 200,> 200,6.25,> 200,25,1.56,3.13,1.56,> 200,12.5,MIC [17]: 3.13 µg/mL; MIC [18]: 100 µg/mL; MIC [19]: > 200 µg/mL; MIC [20]: > 200 µg/mL; MIC [21]: > 200 µg/mL; MIC [22]: < 0.2 µg/mL; MIC [23]: 25 µg/mL; MIC [24]: 12.5 µg/mL; MIC [25]: 3.13 µg/mL; MIC [26]: 3.13 µg/mL
[C-]#[N+]C12CC3(/C=C/C(=O)Nc4ccc5c(c4)OCO5)OC3C1O2 (stereo not drawn) [compound 64],1.56,6.25,12.5,0.05,6.25,> 200,50,> 200,0.39,3.13,12.5,> 200,3.13,> 200,3.13,0.2,6.25,0.05,> 200,0.39,MIC [17]: 0.2 µg/mL; MIC [18]: 6.25 µg/mL; MIC [19]: 25 µg/mL; MIC [20]: > 200 µg/mL; MIC [21]: 12.5 µg/mL; MIC [22]: < 0.2 µg/mL; MIC [23]: 0.78 µg/mL; MIC [24]: 0.39 µg/mL; MIC [25]: 0.2 µg/mL; MIC [26]: 0.2 µg/mL
[C-]#[N+]C12CC3(/C=C/C(=O)Nc4ccc5c(c4)CCC5)OC3C1O2 (stereo not drawn) [compound 75],0.78,1.56,> 200,200,> 200,> 200,> 200,> 200,200,> 200,> 200,> 200,> 200,200,> 200,1.56,3.13,0.78,> 200,0.78,MIC [17]: 0.39 µg/mL; MIC [18]: 200 µg/mL; MIC [19]: > 200 µg/mL; MIC [20]: > 200 µg/mL; MIC [21]: 1.56 µg/mL; MIC [22]: < 0.2 µg/mL; MIC [23]: 1.56 µg/mL; MIC [24]: 1.56 µg/mL; MIC [25]: 0.78 µg/mL; MIC [26]: 0.78 µg/mL
